Laboratory results published in patent US20260108484A1, “TREATMENT OF NEUROPATHIC PAIN IN CANINES” ([…] COMPANY, priority 2022, published 2026).

Assays:
[1] = tested on: voltage-gated calcium channel α2δ subunits; conditions: cited from earlier work
[2] = tested on: CKCS symptomatic for CLM/SM; conditions: cited from earlier work
dogs with CLM/SM = conditions: affected dogs, placebo-controlled treatment trial; cited from earlier work
[3] = tested on: dogs with CLM/SM (neuropathic pain); assay: Pilot study and validation of the Questionnaire (CHASE score) in CLM/SM dogs; type: in vivo, dog
Description: Please think about how your dog has behaved over the past week and use the scale to tell us how well the phrases describe your dog or what he/she is doing.
Summary values for untransformed and unweighted scores across the five final questions are presented below.
Intervention by a board-certified neurologist and prescription of pregabalin at 5-10 mg/kg twice daily relieved clinical signs and reduced CHASE scores to within the normal range, indicating responsiveness of the questionnaire to standard-of-care medical treatment. […] Using the Questionnaire to solicit owner feedback on disease severity and its impacts on affect and quality of life in this manner, owners and the veterinary neurologist concurred on treatment effects in this 100% of cases. This is to be expected given the potency of pregabalin in the treatment of neuropathic pain; however, no owner assessment tool has ever been reported to detect said effects so sensitively. For example, in a randomized controlled study by Thofner et al. (2020), even the very high dose range of 13 to 19 mg/kg pregabalin yielded concurrence between veterinarian and owner in only 52% of assessments of dogs with CLM/SM.

For `CC(C)C[C@H](CN)CC(=O)O` [pregabalin], the “potency and binding affinity compared with gabapentin” value [1] is given as “better potency and binding affinity than gabapentin”, the effect size ([2]; CKCS symptomatic for CLM/SM, crossover placebo-controlled) is given as 0.45 and the “numerical rating scale (NRS) mean score during treatment” value ([2]; liquid formulation of pregabalin, placebo phase 4.24) is given as 3.17 units. The phantom scratching (dogs with CLM/SM) was “effectively reduce phantom scratching”, the “treated dogs exhibiting improvements of at least 5 points” value ([3]; 8 treated dogs, pregabalin 5-10 mg/kg twice daily) was 100% and the “Questionnaire (CHASE) score, Mean” value ([3]; Treated CLM/SM dogs, n=8, untransformed and unweighted scores across the five final questions, pregabalin 5-10 mg/kg twice daily) was 4.4. For the same molecule, the “improvements in symptom severity on the Questionnaire” value ([3]; each of the 8 treated dogs, pregabalin 5-10 mg/kg twice daily) was “at least 5 points” and the effect size ([3]; equivalent to improvement of at least 5 points on the Questionnaire) was at least 1.04.
